Measured values as given in US20240181022A1, “AMURINS LYSINS, AND LYSIN-ANTIMICROBIAL PEPTIDE (AMP) CONSTRUCTS ACTIVE AGAINST GRAM-NEGATIVE BACTERIA” (priority 2021, published 2024).
Several values for one entry are separate records, joined by “and”; a condition that tells them apart may be missing. Equal entries are not always repeated. Where no end group is shown, it is not given here. [ ]: non-standard residue; d: D form.

Assays:
P. aeruginosa = assay: Checkerboard synergy assay (FICI) with antibiotics against P. aeruginosa; assay type: cell-based, Pseudomonas aeruginosa; conditions: for Antibiotic MIC (single agent): P. aeruginosa strain AR-769; for Antibiotic FIC / Antibiotic MIC (combo): P. aeruginosa strain AR-769, in combination with GN370; for Antibiotic MIC (combo): in µg/mL
Method: Any known method to assess MIC may be used.
Checkerboards are constructed by first preparing columns of e.g., a 96-well polypropylene microtiter plate, wherein each well has the same amount of antibiotic diluted 2-fold along the horizontal axis. […] Bacteria are added to the drug combinations at concentrations of 1×10^5 […] in CAA, for example, with or without human serum or pulmonary surfactant. […] Summation fractional inhibitory concentrations (ΣFICs) are calculated for each drug and the minimum ΣFIC value (ΣFICmin) is used to determine the effect of the Chp peptide/antibiotic combination.
The synergy of GN370 with meropenem was evaluated against 3 different strains of P. aeruginosa and three different strains of B. cenocepacia.
GN370 was further tested in combination with up to seven additional antibiotics (in addition to meropenem) against a variety of bacterial strains, including P. aeruginosa, A. baumannii, E. coli, E. cloacae, and K. pneumoniae. GN370 and the subject antibiotics were tested in a checkerboard assay format, and FICI values were determined, wherein ≤0.5 indicates synergy, >0.5-≤1 indicates additive; and >1 indicates indifferent.

M. smegmatis = assay: MIC against M. smegmatis; assay type: cell-based, Mycobacterium smegmatis; conditions: M. smegmatis (MC 155); CAAT media
M. fortuitum = assay: MIC against M. fortuitum; assay type: cell-based, Mycobacterium fortuitum; conditions: M. fortuitum (ATCC 6841); CAAT media
M. avium = assay: MIC against M. avium; assay type: cell-based, Mycobacterium avium; conditions: M. avium (ATCC 700898); CAAT media
M. kansasii = assay: MIC against M. kansasii; assay type: cell-based, Mycobacterium kansasii; conditions: M. kansasi (ATCC 12478); CAAT media
M. scrofulaceum = assay: MIC against M. scrofulaceum; assay type: cell-based, Mycobacterium scrofulaceum; conditions: M. scrofulaceum (ATCC 19981); CAAT media
M. intracellulare = assay: MIC against M. intracellulare; assay type: cell-based, Mycobacterium intracellulare; conditions: M. intracellulare (ATCC 13950); CAAT media
M. tuberculosis = assay type: cell-based, Mycobacterium tuberculosis; conditions: M. tuberculosis (ATCC 35817); (ADC, T) media

## CO/N=C(\C(=O)N[C@@H]1C(=O)N2C(C(=O)[O-])=C(C[N+]3(C)CCCC3)CS[C@H]12)c1csc(N)n1 [Cefepime]
P. aeruginosa
  Antibiotic MIC (single agent): 256 µg/mL
  Antibiotic FIC: 0.25 and 0.125
  Antibiotic MIC (combo): 64 and 32

## CC(C)(O/N=C(\C(=O)N[C@@H]1C(=O)N2C(C(=O)[O-])=C(C[n+]3ccccc3)CS[C@H]12)c1csc(N)n1)C(=O)O [Ceftazidime]
P. aeruginosa
  Antibiotic MIC (single agent): 512 µg/mL
  Antibiotic FIC: 1
  Antibiotic MIC (combo): 512

## AGT915: SEQ ID NO: 63, Marine gokushovirus (MRRYNVNKGKSAKKFRKQVSKTKVANLRSNPMRGGWRL; listed as Marine gokushovirus)
M. smegmatis
  MIC: 1 µg/mL
M. fortuitum
  MIC: 1 µg/mL
M. avium
  MIC: >64 Tg/mL
M. kansasii
  MIC: 1 µg/mL
M. scrofulaceum
  MIC: >64 µg/mL
M. intracellulare
  MIC: >64 µg/mL
M. tuberculosis
  MIC: 4 µg/mL

## ALCES1: SEQ ID NO: 59, Alces alces faeces associated microvirus (MAKKIRNKARDRRIFTRTASRMHKANRTPRFMRGGIRL; Alces alces faeces associated microvirus MP12 5423)
M. smegmatis
  MIC: 2 µg/mL
M. fortuitum
  MIC: 4 µg/mL
M. avium
  MIC: 8 Tg/mL
M. kansasii
  MIC: 2 µg/mL
M. scrofulaceum
  MIC: 2 µg/mL
M. intracellulare
  MIC: 2 µg/mL
M. tuberculosis
  MIC: 8 µg/mL

## AVQ206: SEQ ID NO: 60, Gokushovirinae environmental samples (MRRKKMSRGKSKKLFRRTAKRVHRKNLRARPMRGGIRM)
M. smegmatis
  MIC: 16 µg/mL
M. fortuitum
  MIC: 2 µg/mL
M. avium
  MIC: 1 Tg/mL
M. kansasii
  MIC: 2 µg/mL
M. scrofulaceum
  MIC: 4 µg/mL
M. intracellulare
  MIC: 4 µg/mL
M. tuberculosis
  MIC: 8 µg/mL

## Chp1: Chp peptide, SEQ ID NO: 1, Phage Chp1 (MVRRRRLRRRISRRIFRRTVARVGRRRRSFRGGIRF; Chlamydia virus Chp1)
M. smegmatis
  MIC: 16 µg/mL
M. fortuitum
  MIC: 16 µg/mL
M. avium
  MIC: 4 Tg/mL
M. kansasii
  MIC: 4 µg/mL
M. scrofulaceum
  MIC: 4 µg/mL
M. intracellulare
  MIC: 4 µg/mL
M. tuberculosis
  MIC: 32 µg/mL

## Chp4: Chp peptide, SEQ ID NO: 4, Phage 4 (MARRYRLSRRRSRRLFSRTALRMHRRNRLRRIMRGGIRF; Chlamydia phage 4)
M. smegmatis
  MIC: 4 µg/mL
M. fortuitum
  MIC: 4 µg/mL
M. avium
  MIC: 1 Tg/mL
M. kansasii
  MIC: >0.125 µg/mL
M. scrofulaceum
  MIC: 2 µg/mL
M. intracellulare
  MIC: 1 µg/mL
M. tuberculosis
  MIC: 16 µg/mL

## Chp8: Chp peptide, SEQ ID NO: 8 (MSKKRSRMSRRRSKKLFSKTALRTKSVNTRPPMRGGFRF; listed as Chlamydia trachomatis)
M. smegmatis
  MIC: 8 µg/mL
M. fortuitum
  MIC: 2 µg/mL
M. avium
  MIC: 8 Tg/mL
M. kansasii
  MIC: 4 µg/mL
M. scrofulaceum
  MIC: 4 µg/mL
M. intracellulare
  MIC: 4 µg/mL
M. tuberculosis
  MIC: 8 µg/mL

## Chp9: Chp peptide, SEQ ID NO: 9 (MSLRRHKLSRKASKRIFRKGASRTKTLNTRATPMRGGFRI; listed as Chlamydia trachomatis)
M. smegmatis
  MIC: 8 µg/mL
M. fortuitum
  MIC: 4 µg/mL
M. avium
  MIC: >64 Tg/mL
M. kansasii
  MIC: 8 µg/mL
M. scrofulaceum
  MIC: 8 µg/mL
M. intracellulare
  MIC: 4 µg/mL
M. tuberculosis
  MIC: 8 µg/mL

## Chp10: Chp peptide, SEQ ID NO: 10 (MKRRKLSKKKSRKIFTRGAVNVKKRNLRARPMRGGFRI; listed as Chlamydia trachomatis)
M. smegmatis
  MIC: 1 µg/mL
M. fortuitum
  MIC: 1 µg/mL
M. avium
  MIC: 0.5 Tg/mL
M. kansasii
  MIC: 4 µg/mL
M. scrofulaceum
  MIC: 0.5 µg/mL
M. intracellulare
  MIC: 0.5 µg/mL
M. tuberculosis
  MIC: 8 µg/mL

## Ecp2: SEQ ID NO: 18, hypothetical protein (E. coli) (MARSRRRMSKRSSRRSFRKYAKSHKKNFKARSMRGGIRL; listed as Escherichia coli)
M. smegmatis
  MIC: 8 µg/mL
M. fortuitum
  MIC: 4 µg/mL
M. avium
  MIC: 2 Tg/mL
M. kansasii
  MIC: 2 µg/mL
M. scrofulaceum
  MIC: 4 µg/mL
M. intracellulare
  MIC: 8 µg/mL
M. tuberculosis
  MIC: 4 µg/mL

## Ecp3-M1: Modified variant of Ecp3, SEQ ID NO: 100 (MA[dR]S[dR][dR][dR]MS[dK][dR]SS[dR][dR]SF[dR][dK]YA[dK]TH[dK][dK]NF[dK]A[dR]SM[dR]GGI[dR]L)
M. smegmatis
  MIC: 1 µg/mL
M. fortuitum
  MIC: 8 µg/mL
M. avium
  MIC: 0.5 Tg/mL
M. kansasii
  MIC: 2 µg/mL
M. scrofulaceum
  MIC: 2 µg/mL
M. intracellulare
  MIC: 8 µg/mL
M. tuberculosis
  MIC: 8 µg/mL

## Ecp3: SEQ ID NO: 55, nonstructural protein (Escherichia) (MARSRRRMSKRSSRRSFRKYAKTHKKNFKARSMRGGIRL; listed as Escherichia sp.)
M. smegmatis
  MIC: 8 µg/mL
M. fortuitum
  MIC: 2 µg/mL
M. avium
  MIC: 1 Tg/mL
M. kansasii
  MIC: 2 µg/mL
M. scrofulaceum
  MIC: 2 µg/mL
M. intracellulare
  MIC: 8 µg/mL
M. tuberculosis
  MIC: 8 µg/mL

## Fen7875: SEQ ID NO: 65, Gokushovirinae Fen7875_21 (MKPLKRKPVQKARSAAKFRRNVSTVKAANMAVKPMRGGWRF)
M. smegmatis
  MIC: 16 µg/mL
M. fortuitum
  MIC: 8 µg/mL
M. avium
  MIC: 2 Tg/mL
M. kansasii
  MIC: 32 µg/mL
M. scrofulaceum
  MIC: 16 µg/mL
M. intracellulare
  MIC: 8 µg/mL
M. tuberculosis
  MIC: 4 µg/mL

## Gkh1: SEQ ID NO: 13, Marine gokushovirus (MRRPRKMNYKKSKRMFSRTAARTHRKNSLRGSRPMRGGIRL; listed as Marine gokushovirus)
M. smegmatis
  MIC: 4 µg/mL
M. fortuitum
  MIC: 1 µg/mL
M. avium
  MIC: 4 Tg/mL
M. kansasii
  MIC: 2 µg/mL
M. scrofulaceum
  MIC: 8 µg/mL
M. intracellulare
  MIC: 4 µg/mL
M. tuberculosis
  MIC: 8 µg/mL

## HH3930: SEQ ID NO: 64, Richelia intracellularis HH01 (MRPVKRSRVNKARSAGKFRKQVGKTKMANLRSNPMRGGWRL)
M. smegmatis
  MIC: 16 µg/mL
M. fortuitum
  MIC: 8 µg/mL
M. avium
  MIC: 4 Tg/mL
M. kansasii
  MIC: 32 µg/mL
M. scrofulaceum
  MIC: 16 µg/mL
M. intracellulare
  MIC: 16 µg/mL
M. tuberculosis
  MIC: 4 µg/mL

## Spi1: SEQ ID NO: 25, Spiroplasma virus SpV4 Orf9 (MAYRGFKTSRVVKHRVRRRWFNHRRRYR; Spiroplasma virus SpV4)
M. smegmatis
  MIC: 16 µg/mL
M. fortuitum
  MIC: 8 µg/mL
M. avium
  MIC: >64 Tg/mL
M. kansasii
  MIC: 0.5 µg/mL
M. scrofulaceum
  MIC: 2 µg/mL
M. intracellulare
  MIC: 4 µg/mL
M. tuberculosis
  MIC: 16 µg/mL

## Spi2-M1: Modified variant of Spi2, SEQ ID NO: 99 (M[dR][dR][dK]V[dK]NT[dK][dR]HQW[dR]LTHSA[dR]SI[dK][dR]ANIMPSNP[dR]GG[dR][dR])
M. smegmatis
  MIC: 1 µg/mL
M. fortuitum
  MIC: 4 µg/mL
M. avium
  MIC: >64 Tg/mL
M. kansasii
  MIC: 4 µg/mL
M. scrofulaceum
  MIC: 16 µg/mL
M. intracellulare
  MIC: >64 µg/mL
M. tuberculosis
  MIC: 8 µg/mL

## Spi2: SEQ ID: 26, Spiroplasma virus SpV4 Orf8 (MRRKVKNTKRHQWRLTHSARSIKRANIMPSNPRGGRRF; Spiroplasma virus SpV4)
M. smegmatis
  MIC: 4 µg/mL
M. fortuitum
  MIC: 4 µg/mL
M. avium
  MIC: >64 Tg/mL
M. kansasii
  MIC: 1 µg/mL
M. scrofulaceum
  MIC: 8 µg/mL
M. intracellulare
  MIC: >64 µg/mL
M. tuberculosis
  MIC: 16 µg/mL

## Unp1: SEQ ID NO: 15, unnamed protein product (uncultured bacterium) (MKMRKRTDKRVFTRTAAKSKKVNIAPKIFRGGIRL)
M. smegmatis
  MIC: 2 µg/mL
M. fortuitum
  MIC: 8 µg/mL
M. avium
  MIC: 1 Tg/mL
M. kansasii
  MIC: 8 µg/mL
M. scrofulaceum
  MIC: 8 µg/mL
M. intracellulare
  MIC: 32 µg/mL
M. tuberculosis
  MIC: 4 µg/mL
